Test system: MCF7
Assay: Breast Cancer Cell Proliferation Assay (MCF-7), Cell Titer-Glo
Type: cell-based
Details: Homo sapiens, MCF7, 120 h, MCF7 cells, 5 days of compound exposure
Description: Breast Cancer Cell Proliferation Assay (MCF-7)
MCF7 was expanded and maintained in the medium (Phenol red free DMEM/F12 (Hyclone SH30272.01) NEAA (Gibco11140-050) Na-pyruvate (Gibco 11360-070) and Re-stripped Charcoal stripped FBS (Gemini 100-119)). The cells were adjusted to a concentration of 3,000 cells per mL in the above media, and the cells were incubated (37° C., 5% CO2). The following day a 10-point, serial dilution of compounds was added to the cells at a final concentration ranging from 10-0.000005 μM for test compounds (17β-estradiol was used as a control). Additional cells were plated in 30 wells to serve as the day 1 (pretreatment) comparison. After 5 days of compound exposure, Cell Titer-Glo reagent was added to the cells and the relative luminescence units (RLUs) of each well was determined. Cell Titer-Glo was also added to 32 μL of medium without cells to obtain a background value. The plates were allowed to incubate at room temperature for 10 minutes to stabilize luminescent signal and the luminescence signal was recorded with EnSpire. The relative increase in cell number of each sample is determined as follows: (RLU sample-RLU background/RLU estrogen only treated cells-RLU background)×100=% inhibition.

SMILES	IC50
C[C@@H]1Cc2c([nH]c3ccccc23)[C@@H](c2ccc(OC3CN(CCCF)C3)cc2)N1C12CC(CO)(C1)C2 (single isomer, unassigned) [Compound 50]	≤ 25 nM
C[C@]12CC[C@@H]3c4ccc(O)cc4C[C@@H](CCCCCCCCC[S+]([O-])CCCC(F)(F)C(F)(F)F)[C@H]3[C@@H]1CC[C@@H]2O (stereo partly drawn) [fulvestrant, reference compound]	≤ 25 nM
C[C@@H]1Cc2c([nH]c3ccccc23)[C@@H](c2ccc(OC3CN(CCCF)C3)cc2)N1C12CC(C1)C2 [Compound 38, (1R,3R)-2-(bicyclo[1.1.1]pentan-1-yl)-1-(4-((1-(3-fluoropropyl)azetidin-3-yl)oxy)phenyl)-3-methyl-2,3,4,9-tetrahydro-1H-pyrido[3,4-b]indole]	≤ 25 nM
C[C@H]1Cc2c([nH]c3ccccc23)[C@H](c2c(F)cc(O[C@H]3CCN(CCCF)C3)cc2F)N1C12CC(C#N)(C1)C2 (single isomer, unassigned) [Compound 90]	≥ 250 nM
C[C@@H]1Cc2c([nH]c3ccccc23)[C@@H](c2c(F)cc(NC3CN(CCCF)C3)cc2F)N1C12CC(C(N)=O)(C1)C2 (single isomer, unassigned) [Compound 76]	25 to 250 nM
C[C@@H]1Cc2c([nH]c3ccccc23)[C@@H](c2ncc(NC3CN(CCCF)C3)cn2)N1C12CC(C1)C2 [Compound 60, 2-((1S,3R)-2-(bicyclo[1.1.1]pentan-1-yl)-3-methyl-2,3,4,9-tetrahydro-1H-pyrido[3,4-b]indol-1-yl)-N-(1-(3-fluoropropyl)azetidin-3-yl)pyrimidin-5-amine]	≥ 250 nM
C[C@@H]1Cc2c([nH]c3ccccc23)[C@@H](c2ccc(O[C@H]3CCN(CCCF)C3)cc2)N1C12CC(C1)C2 (single isomer, unassigned) [Compound 8]	≤ 25 nM
C[C@H]1Cc2c([nH]c3ccccc23)[C@H](c2c(F)cc(N[C@H]3CCN(CCCF)C3)cc2F)N1C12CC(CO)(C1)C2 (single isomer, unassigned) [Compound 71]	≤ 25 nM
C[C@@H]1Cc2c([nH]c3ccccc23)[C@@H](c2c(F)cc(OC3CN(CCCF)C3)cc2F)N1C12CC(C1)C2 [Compound 23, (1R,3R)-2-(bicyclo[1.1.1]pentan-1-yl)-1-(2,6-difluoro-4-((1-(3-fluoropropyl)azetidin-3-yl)oxy)phenyl)-3-methyl-2,3,4,9-tetrahydro-1H-pyrido[3,4-b]indole]	≤ 25 nM
CCCN1CC(Oc2ccc([C@H]3c4[nH]c5ccccc5c4C[C@H](C)N3C34CC(CO)(C3)C4)cc2)C1 (single isomer, unassigned) [Compound 53]	25 to 250 nM
C[C@H]1Cc2c([nH]c3ccccc23)[C@H](c2c(F)cc(O[C@H]3CCN(CCCF)C3)cc2F)N1C12CC(C(N)=O)(C1)C2 (single isomer, unassigned) [Compound 32]	≥ 250 nM
C[C@@H]1Cc2c([nH]c3ccccc23)[C@@H](c2c(F)cc(OCCN3CCCC3)cc2F)N1C12CC(C1)C2 [Compound 26, (1R,3R)-2-(bicyclo[1.1.1]pentan-1-yl)-1-(2,6-difluoro-4-(2-(pyrrolidin-1-yl)ethoxy)phenyl)-3-methyl-2,3,4,9-tetrahydro-1H-pyrido[3,4-b]indole]	≥ 250 nM
CCCN1C[C@@H](Nc2ccc([C@@H]3c4[nH]c5ccccc5c4C[C@@H](C)N3C34CC(C3)C4)cc2)C[C@@H]1C [Compound 89, (3S,5S)—N-(4-((1R,3R)-2-(bicyclo[1.1.1]pentan-1-yl)-3-methyl-2,3,4,9-tetrahydro-1H-pyrido[3,4-b]indol-1-yl)phenyl)-5-methyl-1-propylpyrrolidin-3-amine]	25 to 250 nM
C[C@@H]1Cc2c([nH]c3ccccc23)[C@@H](c2c(F)cc(NC3CN(CCCF)C3)cc2F)N1C12CC(CO)(C1)C2 (single isomer, unassigned) [Compound 18]	≤ 25 nM
C[C@H](F)CN1CC(Nc2ccc([C@@H]3c4[nH]c5ccccc5c4C[C@@H](C)N3C34CC(C3)C4)cc2)C1 (single isomer, unassigned) [Compound 83]	≤ 25 nM
CCCNCC1CCN(c2ccc([C@@H]3c4[nH]c5ccccc5c4C[C@@H](C)N3C34CC(C3)C4)cc2)CC1 [Compound 93, N-((1-(4-((1R,3R)-2-(bicyclo[1.1.1]pentan-1-yl)-3-methyl-2,3,4,9-tetrahydro-1H-pyrido[3,4-b]indol-1-yl)phenyl)piperidin-4-yl)methyl)propan-1-amine]	≤ 25 nM
C[C@@H]1Cc2c([nH]c3ccccc23)[C@@H](c2ccc(N[C@@H]3CN(CCCF)C[C@@H]3O)cc2)N1C12CC(C1)C2 [Compound 78, (3S,4R)-4-((4-((1R,3R)-2-(bicyclo[1.1.1]pentan-1-yl)-3-methyl-2,3,4,9-tetrahydro-1H-pyrido[3,4-b]indol-1-yl)phenyl)amino)-1-(3-fluoropropyl)pyrrolidin-3-ol]	≤ 25 nM

SMILES	IC50
CCCN1CC(Nc2ccc([C@@H]3c4[nH]c5ccccc5c4C[C@@H](C)N3C34CC(C3)C4)cn2)C1 [Compound 30, 5-((1R,3R)-2-(bicyclo[1.1.1]pentan-1-yl)-3-methyl-2,3,4,9-tetrahydro-1H-pyrido[3,4-b]indol-1-yl)-N-(1-propylazetidin-3-yl)pyridin-2-amine]	≥ 250 nM
C[C@@H]1Cc2c([nH]c3ccccc23)[C@@H](c2cnc(NC3CN(CCCF)C3)nc2)N1C12CC(C1)C2 [Compound 57, 5-((1R,3R)-2-(bicyclo[1.1.1]pentan-1-yl)-3-methyl-2,3,4,9-tetrahydro-1H-pyrido[3,4-b]indol-1-yl)-N-(1-(3-fluoropropyl)azetidin-3-yl)pyrimidin-2-amine]	25 to 250 nM
C[C@@H]1Cc2c([nH]c3ccccc23)[C@@H](c2ncc(OC3CN(CCCF)C3)cn2)N1C12CC(C1)C2 [Compound 61, (1S,3R)-2-(bicyclo[1.1.1]pentan-1-yl)-1-(5-((1-(3-fluoropropyl)azetidin-3-yl)oxy)pyrimidin-2-yl)-3-methyl-2,3,4,9-tetrahydro-1H-pyrido[3,4-b]indole]	≥ 250 nM
C[C@H]1Cc2c([nH]c3ccccc23)[C@H](c2c(F)cc(O[C@@H]3CCN(CCCF)C3)cc2F)N1C12CC(C(N)=O)(C1)C2 (single isomer, unassigned) [Compound 33]	≥ 250 nM
C[C@@H]1Cc2c([nH]c3ccccc23)[C@@H](c2ccc(N[C@H]3CN(CCCF)C[C@@H]3O)cc2)N1C12CC(C1)C2 (single isomer, unassigned) [Compound 79]	25 to 250 nM
COc1cc(NC2CN(CCCF)C2)cc(F)c1[C@@H]1c2[nH]c3ccccc3c2C[C@@H](C)N1C12CC(C1)C2 [Compound 92, N-(4-((1R,3R)-2-(bicyclo[1.1.1]pentan-1-yl)-3-methyl-2,3,4,9-tetrahydro-1H-pyrido[3,4-b]indol-1-yl)-3-fluoro-5-methoxyphenyl)-1-(3-fluoropropyl)azetidin-3-amine]	≤ 25 nM
C[C@@H]1Cc2c([nH]c3ccccc23)[C@@H](c2ccc(O[C@H]3CCN(CCCF)C3)cn2)N1C12CC(C1)C2 (single isomer, unassigned) [Compound 12]	25 to 250 nM
CCCN1CC(Oc2ccc([C@@H]3c4[nH]c5ccccc5c4C[C@@H](C)N3C34CC(CO)(C3)C4)cc2)C1 (single isomer, unassigned) [Compound 52]	≤ 25 nM
CCCN1C[C@H](F)[C@H](Nc2ccc([C@@H]3c4[nH]c5ccccc5c4C[C@@H](C)N3C34CC(C3)C4)cc2)C1 (single isomer, unassigned) [Compound 85]	≤ 25 nM
C[C@@H]1Cc2c([nH]c3ccccc23)[C@@H](c2c(F)cc(O[C@@H]3CCN(CCCF)C3)cc2F)N1C12CC(C(N)=O)(C1)C2 (single isomer, unassigned) [Compound 34]	25 to 250 nM
C[C@@H]1Cc2c([nH]c3ccccc23)[C@@H](c2cnc(N[C@H]3CCN(CCCF)C3)cn2)N1C12CC(C1)C2 [Compound 44, 5-((1S,3R)-2-(bicyclo[1.1.1]pentan-1-yl)-3-methyl-2,3,4,9-tetrahydro-1H-pyrido[3,4-b]indol-1-yl)-N—((S)-1-(3-fluoropropyl)pyrrolidin-3-yl)pyrazin-2-amine]	≥ 250 nM
C[C@@H]1Cc2c([nH]c3ccccc23)[C@@H](c2ccc(NC3CN(CCCF)C3)cc2)N1C12CC(CF)(C1)C2 (single isomer, unassigned) [Compound 62]	≥ 250 nM
C[C@@H]1Cc2c([nH]c3ccccc23)[C@@H](c2ccc(OC3CN(C4CC4)C3)cc2)N1C12CC(C1)C2 [Compound 47, (1R,3R)-2-(bicyclo[1.1.1]pentan-1-yl)-1-(4-((1-cyclopropylazetidin-3-yl)oxy)phenyl)-3-methyl-2,3,4,9-tetrahydro-1H-pyrido[3,4-b]indole]	≤ 25 nM
C[C@H]1Cc2c([nH]c3ccccc23)[C@H](c2ccc(OC3CN(CCCF)C3)cc2)N1C12CC(CO)(C1)C2 (single isomer, unassigned) [Compound 51]	25 to 250 nM
C[C@H]1Cc2c([nH]c3ccccc23)[C@H](c2c(F)cc(NC3CN(CCCF)C3)cc2F)N1C12CC(C(N)=O)(C1)C2 (single isomer, unassigned) [Compound 77]	≥ 250 nM
C#CCN1CC(Nc2ccc([C@@H]3c4[nH]c5ccccc5c4C[C@@H](C)N3C34CC(C3)C4)nc2)C1 [Compound 48, 6-((1S,3R)-2-(bicyclo[1.1.1]pentan-1-yl)-3-methyl-2,3,4,9-tetrahydro-1H-pyrido[3,4-b]indol-1-yl)-N-(1-(prop-2-yn-1-yl)azetidin-3-yl)pyridin-3-amine]	≤ 25 nM

Source: patent US11999728B2, “Estrogen receptor modulators” (Recurium IP Holdings, LLC, priority 2020, dated 2024)
